Assay results as given in patent publication US11129801B2 (SigmaThera SAS, priority 2016, dated 2021).

Tested on: rat primary dopaminergic neurons (TH positive neurons)
Assay: Survival of primary dopaminergic neurons injured by 6OHDA
Assay type: cell-based
Settings: 6OHDA 20 μM, 48 h
Procedure: Rat dopaminergic neurons were cultured as described (Schinelli S, et al. Journal of neurochemistry 50(6): 1900-1907). Briefly pregnant female rats of 15 days gestation were killed by cervical dislocation (Rats Wistar; Janvier) and the foetuses removed from the uterus. The embryonic midbrains were removed and placed in ice-cold medium of Leibovitz 15 (L15; PanBiotech, Ref P04-27055, Batch: 8810315) containing 2% of Penicillin-Streptomycin (PS; PanBiotech, ref: P06-07100, Batch: 7511015) and 1% of bovine serum albumin (BSA; PanBiotech, Ref: P06-1391100, Batch: H140904). Only the ventral portions of the mesencephalic flexure were used for the cell preparations as this region of the developing brain is rich in dopaminergic neurons. The midbrains were dissociated by trypsinization for 20 minutes (min) at 37° C. (Trypsin EDTA 1×; PanBiotech, Ref: P10-023100, batch: 1670415). The reaction was stopped by the addition of Dulbecco's modified Eagle's medium (DMEM; PanBiotech, Ref: P04-03600, Batch: 9021115) containing DNase I grade II (0.1 mg/ml; PanBiotech, Ref: P60-37780100, Batch: H140508) and 10% of fetal calf serum (FCS; Invitrogen). Cells were then mechanically dissociated by 3 passages through a 10 ml pipette. Cells were then centrifuged at 180×g for 10 min at 4° C. on a layer of BSA (3.5%) in L15 medium. The supernatant was discarded and the cell pellets were re-suspended in a defined culture medium consisting of Neurobasal (Invitrogen, Ref: 21103, Batch: 1754639) supplemented with B27 (2%; Invitrogen, ref: 17504, batch: 1799273), L-glutamine (2 mM; PanBiotech, Ref: P04-80100, Batch: 6620314) and 2% of PS, 10 ng/mL of BDNF (PanBiotech, Ref: CB-1115002, Batch: 121027) and 1 ng/mL of GDNF (PanBiotech, Ref: CB-1116001, Batch: H151004). Viable cells were counted in a Neubauer cytometer using the trypan blue exclusion test. The cells were seeded at a density of 4×10^4 cells/well in 96 well-plates (pre-coated with poly-D-lysine; Greiner, Ref: E150033VJ) and were cultured at 37° C. in a humidified air (95%)/CO2 (5%) atmosphere. Half of the medium was changed every 2 days with fresh medium. In these conditions, after 5 days of culture, astrocytes are present in the culture and release growth factor allowing neurons differentiation. Five to six percent of the neuronal cell population was dopaminergic neurons.
Briefly, on day 6 of culture, cells were pre-treated for 1 h with test compound or reference compound then intoxicated with 6OHDA (20 μM) for 48 h. The following conditions were done:
[…]_+6OHDA (20 μM, 48 h+BDNF (50 ng/ml) as a reference compound
One culture was done with 6 wells per condition. […]
The data were expressed as mean±s.e.m. […]

CCC(C/C=C/c1ccccc1)(c1ccccc1)N(C)CC1CC1 (single isomer, unassigned; (+)) [igmesine, (+)-(E)-N-(cyclopropylmethyl)-N-methyl-3,6-diphenylhex-5-en-3-amine]
TH positive neurons (0.3 μM): 94.58 % of the control | TH positive neurons (1 μM): 100.49 % of the control | TH positive neurons (3 μM): 87.68 % of the control

B1: BDNF: Brain-derived neurotrophic factor, used as a reference compound (protein, UniProt P23560 19-247, looked up)
Neurotrophic factor BDNF …: APMKEANIRGQGGLAYPGVRTHGTLESVNGPKAGSRGLTSLADTFEHVIEELLDEDQKVRPNEENNKDADLYTSRVMLSSQVPLEPPLLFLLEEYKNYLDAANMSMRVRRHSDPARRGELSVCDSISEWVTAADKKTAVDMSGGTVTVLEKVPVSKGQLKQYFYETKCNPMGYTKEGCRGIDKRHWNSQCRTTQSYVRALTMDSKKRIGWRFIRIDTSCVCTLTIKRGR
TH positive neurons (50 ng/mL): 91.03 % of the control
